In this assay the test system is HL-1 cells. As to the kind of experiment: Immunofluorescence staining of hypertrophy related proteins in HL-1 cells. The format is cell-based, murine. Particulars: FIG. 12.
Text: (§1) Immunofluorescent staining of HL-1 cells can be carried out in a method similar to that previously described (Tevosian et al., 1999), except that 0.5% CHAPS (Fisher) can be used instead of Triton X-100. Briefly, HL-1 cells grown on 2-well slides (Lab-Tek) are initially preserved with Sprayfix cytology fixative. To prepare for staining, the slides are washed in EtOH and water, and then briefly washed with PBS. Cells were fixed with cold acetone, rinsed with PBS, and permeabilized by three ten minute washes with 0.5% CHAPS/PBS. Next, the cells are blocked overnight with 5% milk/10% goat serum/PBS. The permeabilization step is then repeated prior to incubation with the primary antibody in 10% goat serum/0.5% CHAPS/PBS with the antibodies and dilutions listed below. After a one-hour incubation with the primary antibodies, the slides are washed three times in the 10% goat serum/0.5% CHAPS/PBS, then three times in 0.5% CHAPS/PBS. Secondary antibodies, as described below, can be incubated for one-hour with 1% BSA/0.5% CHAPS/PBS. After washing with 0.5% CHAPS/PBS the cells are stained for five minutes with 4,6-diamidine-2-phenylidole-dihydrochloride (DAPI Nucleic Acid Stain; Invitrogen) and cover slips are mounted with Prolong Gold anti-fade reagent (Invitrogen). The following antibody combinations can be used: rabbit anti-mouse VDR (sc-1008; Santa Cruz Biotech; 1:100 dilution), rabbit anti-mouse ANP (AB 5490; Chemicon; 1:50 dilution), and rabbit anti-mouse c-myc (sc-764; Santa Cruz Biotech; 1:100 dilution), all followed by FITC conjugated goat anti-rabbit (AP 307F; Chemicon; 1:400). Mouse monoclonal anti-myotrophin (V 11220, BD Transduction Laboratory; 1:50) followed by FITC conjugated goat anti-mouse (F-0257; Sigma; 1:128), and goat anti-mouse calbindin-9 (sc-18038. Santa Cruz Bio; 1:100) followed by FITC conjugated rabbit anti-goat (AP 106F; Chemicon; 1:100). Slides can be analyzed on an Olympus BX 51 immunofluorescence microscope and photomicrographs can be recorded as digital images.
as §1, with “incubation” for “incubation with the primary antibodies,”, “The following antibody combinations can be used: rabbit anti-mouse VDR (sc-1008; Santa Cruz Biotech; 1:100 dilution), rabbit anti-mouse ANP (AB 5490; Chemicon; 1:50 dilution), and rabbit anti-mouse c-myc (sc-764; Santa Cruz Biotech; 1:100 dilution), all followed by FITC conjugated goat anti-rabbit (AP 307F; Chemicon; 1:400). Mouse monoclonal anti-myotrophin (V 11220, BD Transduction Laboratory; 1:50) followed by FITC conjugated goat anti-mouse (F-0257; Sigma; 1:128), and goat anti-mouse calbindin-9 (sc-18038. Santa Cruz Bio; 1:100) followed by FITC conjugated rabbit anti-goat (AP 106F; Chemicon; 1:100).” left out

SMILES strings stand for the structures.

Turning to `C=C1CC[C@H](O)C/C1=C/C=C1\CCC[C@]2(C)[C@@H]([C@H](C)CCCC(C)C)CC[C@@H]12` [Vitamin D3], the “expression of ANP” value was “inhibited or reduced the expression”, the “expression of VDR” value is on record as “increased the expression”, the expression of c-myc result was “inhibited or reduced the expression” and the “expression of calbindin 9” value is reported as “inhibited or reduced the expression”. For the same compound, the expression of myotrophin entry is “increased the expression”.

For the origin of these results see patent publication US20100190187A1, “Screening Assays for Antagonists and Analyses of Cardiac Hypertrophy” (The Regents of the University of Michigan Office of …, priority 2006, published 2010).
